Results as given in US8859727B2, “Bioactive FUS1 peptides and nanoparticle-polypeptide complexes” (Board of Regents, The University of Texas System, priority 2005, dated 2014).
Entries after “also recorded” stand apart in the source; their conditions may differ. Structures can show the parent of a compound that is named as a salt. Where two headings read alike, the source gives them in different places. Where a SMILES comes first, the peptide text is derived from it. Where no end group is shown, it is not given here. The star is where a group is joined. Stearoyl = CCCCCCCCCCCCCCCCCC(=O)*

Tests used:
[1] = molecular target: T1, c-Abl tyrosine kinase (Abelson murine leukemia virus, UniProt P00521); assay type: biochemical; conditions: for inhibition of Abl tyrosine kinase: commercial / bacterially purified Abl kinase, GST-Crk substrate
T1 construct: truncated commercial (New England Bio-Labs) cAbl tyrosine kinase (45 kD) containing only the SH2 and SH1 domains; purchased New England Bio-Labs; host or cells: bacteria
T1 sequence (P00521 1-398): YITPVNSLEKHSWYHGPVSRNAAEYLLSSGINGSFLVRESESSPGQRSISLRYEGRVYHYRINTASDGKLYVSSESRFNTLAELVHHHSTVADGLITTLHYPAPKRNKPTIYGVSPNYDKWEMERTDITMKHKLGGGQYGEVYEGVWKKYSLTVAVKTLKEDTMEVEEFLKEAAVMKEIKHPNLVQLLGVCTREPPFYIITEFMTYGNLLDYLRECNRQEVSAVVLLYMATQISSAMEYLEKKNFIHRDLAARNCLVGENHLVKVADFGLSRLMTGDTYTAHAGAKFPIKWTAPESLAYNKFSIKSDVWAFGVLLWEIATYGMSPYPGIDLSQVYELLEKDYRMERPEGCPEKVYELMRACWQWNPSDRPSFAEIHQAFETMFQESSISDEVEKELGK
Experimental: A zero peptide control, a DMSO control, a DMSO plus stearic acid control, and 20, 25, 30, 35, 40, 45, 50 and 55:M of peptide were evaluated.
After 30 minutes of incubation at 30 degrees, samples were boiled with 2×SDS sample buffer and run on an 8% SDS PAGE gel. The gel was dried and exposed to a phosphoimager.
GST-Crk phosphorylation was quantified by using a phosphoimager.

[2] = tested on: Rat-1 cells transformed with an activated c-Abl tyrosine kinase; assay: Foci formation in Rat-1 cells transformed by c-Abl; assay type: cell-based
Excerpt: Rat-1 SH2 cells express GFP as a marker. A fluorescent photo was taken of green fluorescing Rat-1 SH2 cells treated with peptide. A phase contrast photo of the field was produced. […] (Rat-1 SH2+M74) and (Rat-1 SH2+ stearic acid) were imaged.

[3] = tested on: H1299 cells; assay: Soft agar colony assay; assay type: cell-based, human
[4] = tested on: normal bronchial epithelial CCD16 cells; assay: Cell growth / cytotoxicity in normal cells, XTT assay; assay type: cell-based, human; conditions: at the IC80 doses to all other NSCLC cells
[5] = Toxicity Study of FP-nanoparticle in C3H mice (hematological parameters, hepatic and renal function); assay type: in vivo; conditions: tail vein three times every other day
Experimental: C3H mice were injected with a nanoparticle containing a peptide (either the FUS-1 peptide or a nonspecific peptide), and various toxicological parameters were subsequently analyzed at 1, 2 and 3 weeks after injection. Control mice (“Group IX”) were injected with PBS. The toxicological parameters evaluated included hematological parameters (i.e., red blood cell counts “RBC” and white blood cell counts “WBC”), analysis of hepatic function (i.e., AST, ALT, and total bilirubin analysis) and analysis of renal function (i.e., evaluation of creatinine levels). Either DOTAP:cholesterol nanoparticles or DOPC (neutral liposome) nanoparticles were used. The amount of peptide-containing nanoparticle administered to the C3H mice varied from 2 mg/kg to 5 mg/kg. These studies are summarized below in Table V.

[6] = Rat-1 cells transformed with activated c-Abl
[7] = 2 mg/kg, 1st week after last treatment
[8] = 2 mg/kg, 2nd week after last treatment
[9] = 2 mg/kg, 3rd week after last treatment
[10] = 5 mg/kg, 1st week after last treatment
[11] = 5 mg/kg, 2nd week after last treatment
[12] = 5 mg/kg, 3rd week after last treatment

## CCCCCCCCCCCCCCCCCC(=O)O [stearic acid]
[1]
  inhibition of Abl tyrosine kinase: no inhibitory effects; also recorded: not inhibitory
[1]; listed as Stearate
  inhibition of Abl tyrosine kinase: not inhibitory
[2]; 30:M, Rat-1 SH2 cells
  foci formation: no effect
[2]; [6]
  foci formation: no effects

## Non-stearate FUS1 peptide: Fus1 peptide sequence without the stearic acid moiety (KLRRVHKNLIPQGIVKLDHR)
[1]; 0-60 uM, 45 kD Abl tyrosine kinase, GST-Crk phosphorylation
  inhibition of Abl tyrosine kinase activity: did not inhibit
[1]
  inhibition of Abl tyrosine kinase: did not inhibit
[1]; listed as Fus1 peptide lacking the stearate N-terminal moiety
  inhibition of Abl tyrosine kinase: inactive

## Cc1ccc(NC(=O)c2ccc(CN3CCN(C)CC3)cc2)cc1Nc1nccc(-c2cccnc2)n1 [imatinib, imatinib mesylate]
[3]; 1-10 uM, dose-dependent, number and size of colonies
  colony-forming ability: strongly inhibited
[3]; 10:M, compared to untreated cells
  size of colonies: reduced in size
[3]; 10:M, compared to untreated control
  number of colonies: almost complete reduction in the number of colonies

## Stearic acid-KLRRVHKNLIPQGIVKLDHR (Stearoyl-KLRRVHKNLIPQGIVKLDHR) [stearate-Fus1 peptide]
[1]
  inhibition of Abl tyrosine kinase: strongly inhibitory
[2]; 40 μM
  foci formation: blocked foci formation
[2]; [6]
  foci formation: blocked foci formation

## CCCCCCCCCCCCCCCCCC(=O)N[C@@H](CCCCN)C(=O)N[C@@H](CC(C)C)C(=O)N[C@@H](CCCNC(=N)N)C(=O)N[C@@H](CCCNC(=N)N)C(=O)N[C@H](C(=O)N[C@@H](Cc1c[nH]cn1)C(=O)N[C@@H](CCCCN)C(=O)N[C@@H](CC(N)=O)C(=O)N[C@@H](CC(C)C)C(=O)N[C@H](C(=O)N1CCC[C@H]1C(=O)N[C@@H](CCC(N)=O)C(=O)NCC(=O)N[C@H](C(=O)N[C@H](C(=O)N[C@@H](CCCCN)C(=O)N[C@@H](CC(C)C)C(=O)N[C@@H](CC(=O)O)C(=O)N[C@@H](Cc1c[nH]cn1)C(=O)N1CCC[C@H]1C(=O)N[C@@H](CCCNC(=N)N)C(=O)O)C(C)C)[C@@H](C)CC)[C@@H](C)CC)C(C)C [st-wt-FP] (Stearoyl-KLRRVHKNLIPQGIVKLDHPR-OH)
[4]
  cytotoxicity in normal cells: No significant cytotoxicity

## CCCCCCCCCCCCCCCCCC(=O)N[C@@H](CC(=O)O)C(=O)N[C@@H](CC(C)C)C(=O)N[C@H](C(=O)N[C@@H](CCC(=O)O)C(=O)N[C@@H](CCC(=O)O)C(=O)N[C@@H](C)C(=O)N[C@@H](C)C(=O)N[C@@H](CO)C(=O)N[C@@H](CCCNC(=N)N)C(=O)N1CCC[C@H]1C(=O)N[C@H](C(=O)N[C@@H](CC(=O)O)C(=O)N[C@@H](C)C(=O)N[C@H](C(=O)N1CCC[C@H]1C(=O)N[C@@H](CCC(=O)O)C(=O)N[C@@H](CCC(N)=O)C(=O)N[C@H](C(=O)N[C@@H](CCCCN)C(=O)N[C@@H](C)C(=O)N[C@@H](C)C(=O)NCC(=O)N[C@@H](C)C(=O)N[C@@H](Cc1ccc(O)cc1)C(=O)O)C(C)C)C(C)C)C(C)C)[C@@H](C)CC [NSP] (Stearoyl-DLIEEAASRPVDAVPEQVKAAGAY-OH)
[5]; [7]
  ALT: 76 ± 7.87 U/L
  AST: 183 ± 6 U/L
  Creatinine: 0.6 ± 0 mg/dL
  Total Bilirubin: 2.7 ± 0 mg/dL
[5]; [8]
  ALT: 61.67 ± 5.44 U/L
  AST: 146 ± 45.31 U/L
  Creatinine: 0.5 ± 0.10 mg/dL
  RBC: 6.23 ± 0.33 ×10^9
  Total Bilirubin: 1.13 ± 1.09 mg/dL
  WBC: 1.93 ± 0.58 ×10^9
[5]; [9]
  ALT: 58.67 ± 12.55 U/L
  AST: 94.67 ± 28.59 U/L
  Creatinine: 0.38 ± 0.09 mg/dL
  RBC: 5.7 ± 1.14 ×10^9
  Total Bilirubin: 0.6 ± 0.42 mg/dL
  WBC: 1.93 ± 0.45 ×10^9
[5]; [10]
  ALT: 91.5 ± 7.5 U/L
  AST: 148.5 ± 13.5 U/L
  Creatinine: 0.317 ± 0.02 mg/dL
  Total Bilirubin: 1.8 ± 1.2 mg/dL
[5]; [11]
  ALT: 54 ± 9.93 U/L
  AST: 96.33 ± 20.24 U/L
  Creatinine: 0.35 ± 0.02 mg/dL
  RBC: 7.47 ± 2.28 ×10^9
  Total Bilirubin: 0.7 ± 0.28 mg/dL
  WBC: 1.6 ± 0.24 ×10^9
[5]; [12]
  ALT: 50 ± 6.16 U/L
  AST: 83.67 ± 23.63 U/L
  Creatinine: 0.32 ± 0.04 mg/dL
  RBC: 6.67 ± 0.69 ×10^9
  Total Bilirubin: 0.43 ± 0.12 mg/dL
  WBC: 1.6 ± 0.14 ×10^9
